# Data published in patent US7109175B1, “Specific steady-state R-type CA2+ channel blockers and use thereof” (Universite de Sherbrooke, priority 2000, dated 2006).
# “Also recorded” adds a separate entry of the source.
# How the values were obtained:
# R-type Ca^2+ channel = assay: Ca2+ channel blockers tested on the R-type channel (data not shown); assay type: cell-based
# [1] = tested on: writhing response in mice; assay: Writhing response in mice (acetic acid, acetylcholine, kaolin); assay type: in vivo; conditions: i.p., mice; for ID50 ACETYLCHOLINE: acetylcholine-induced writhes; for ID50 KAOLIN: kaolin-induced writhes
# Excerpt: The antinociceptive actions of compound MV 8612 and MV 8608 were investigated in different models of nociception in mice as reported previously (Vaz et al., 1996, J. Pharmacol. Exp. Ther. 278:304–312).
# tail-flick = assay: Tail-flick in mice; assay type: in vivo; conditions: i.p.
# L-type Ca^2+ channel = assay: Isradipine on L-type channel (data not shown); assay type: cell-based; conditions: read-out: ED50, block of L-type Ca2+ channel
# [2] = tested on: circulating ET-1, blood flow, hypertension
# anaesthetized rat = assay: Anaesthetized rat, blood pressure and PAF hypotension; assay type: in vivo; conditions: rat, results not shown
# Excerpt: On the other hand, in vivo administered PAF, induced a marked hypotension in the anaesthetized rat and guinea pig.
# [3] = tested on: plasma ET-1, attacks of Raynaud's phenomenon; conditions: patients, La Civita et al. 1996; cited from earlier work
# [4] = tested on: vasoconstriction, hypotension and airways hypereactivity induced by PAF, ET-1 and organ transplantation; assay: In vivo tests in rats, rabbits and guinea pigs (summary); conditions: rabbits, guinea pigs
# MG63 and FAOS-2 = assay: Spontaneous proliferation of human osteoblast cancer lines; assay type: cell-based; conditions: 10^−8M
smiles,measurement,setting,value
COc1ccc([C@@H]2Sc3cc(Cl)ccc3N(CCN(C)C)C(=O)[C@@H]2OC(C)=O)cc1 [Clentiazem],block of R-type Ca2+ channel,R-type Ca^2+ channel,none were found to block the R-type Ca^2+
COc1ccc(CCN(C)CCCC(C#N)(c2cc(OC)c(OC)c(OC)c2)C(C)C)cc1OC (stereo not shown) [D600],block of R-type Ca2+ channel,R-type Ca^2+ channel,none were found to block the R-type Ca^2+
COc1cccc(CCN(C)CCCC(C#N)(c2ccc(OC)c(OC)c2)C(C)C)c1 (stereo not shown) [D888],block of R-type Ca2+ channel,R-type Ca^2+ channel,none were found to block the R-type Ca^2+
COc1ccc([C@@H]2Sc3ccccc3N(CCN(C)C)C(=O)[C@@H]2OC(C)=O)cc1 [Diltiazem],block of R-type Ca2+ channel,R-type Ca^2+ channel,none were found to block the R-type Ca^2+
"COc1ccc2c(c1)c(CC(=O)O)c(C)n2C(=O)c1ccc(Cl)cc1 [INDOMETHACIN, indomethacin, reference compound]",ID50 ACETIC ACID,[1]; acetic acid-induced writhes,1.2 (0.9–1.4) μmol/kg
same,ID50 ACETYLCHOLINE,[1],0.8 (0.5–1.0) μmol/kg
same,ID50 KAOLIN,[1],1.6 (1.4–1.8) μmol/kg
"CN1CC[C@]23c4c5ccc(O)c4O[C@H]2[C@@H](O)C=C[C@H]3[C@H]1C5 [MORPHINE, morphine, reference compound]",ID50 ACETYLCHOLINE,[1],1.4 (1.0–1.8) μmol/kg
same,ID50 KAOLIN,[1],1.4 (1.2–1.7) μmol/kg
same,ID50 TAIL-FLICK,tail-flick,6.0(5.7–6.4) μmol/kg
COc1ccc(CCN(C)CCCC(C#N)(c2ccc(OC)c(OC)c2)C(C)C)cc1OC (stereo not shown) [Verapamil],block of R-type Ca2+ channel,R-type Ca^2+ channel,none were found to block the R-type Ca^2+
COC(=O)C1=C(C)NC(C)=C(C(=O)OC(C)C)C1c1cccc2nonc12 (stereo not shown) [isradipine],EC50,L-type Ca^2+ channel,~1000 nM
same,hypertension and ET-1 plasma elevation associated with cyclosporin A (Sandimmune) treatment,"[2]; allograft transplant, listed as Lomir/Dynacirc",blocked hypertension and ET-1 plasma elevation; also recorded: blocks the elevated circulating endothelin level
same,increase of circulating ET-1 and decrease of blood flow,"[2]; organ transplants, rabbit, cyclosporin-A treated",restored ET-1 and blood flow levels
same,intrinsic hypotensive effect,anaesthetized rat,marked intrinsic hypotensive properties
same,"elevated plasma ET-1 level and frequency, severity of acute attacks of Raynaud's phenomenon",[3],significantly reduced
same,side effects in vivo,[4],exhibited significant side effects
same,spontaneous cell proliferation,MG63 and FAOS-2,reduced spontaneous cell proliferation
COC(=O)C1=C(C)NC(C)=C(C(=O)OC)C1c1ccccc1[N+](=O)[O-] [nifedipine],intrinsic hypotensive effect,anaesthetized rat,marked intrinsic hypotensive properties
